From ChEMBL document CHEMBL4177524, “Discovery of hepatitis B virus capsid assembly inhibitors leading to a heteroaryldihydropyrimidine based clinical candidate (GLS4)” (Bioorg Med Chem, 2017)

Legend:
[1] = Cytotoxicity in human HepG2.215 cells assessed as reduction in cell viability after 5 days by CCK8 assay; assay type: cell-based, HepG2 2.2.15; details: HepG2.2.15 cells
Hepatitis B virus [2] = test: Antiviral activity against telbivudine-resistant hepatitis B virus harboring reverse transcriptase L180M/M204V double mutant infected in human Huh7 cells assessed as reduction in secreted DNA levels measured on day 7 by real-time PCR analysis; assay type: functional, organism-based; details: Huh-7, 168 h
Hepatitis B virus [3] = test: Antiviral activity against telbivudine-resistant wild type hepatitis B virus infected in human Huh7 cells assessed as reduction in secreted DNA levels measured on day 7 by real-time PCR analysis; assay type: functional, organism-based; details: Huh-7, 168 h
Hepatitis B virus [4] = test: Antiviral activity against telbivudine-resistant hepatitis B virus harboring reverse transcriptase M204I mutant infected in human Huh7 cells assessed as reduction in secreted DNA levels measured on day 7 by real-time PCR analysis; assay type: functional, organism-based; details: Huh-7, 168 h
Hepatitis B virus [5] = test: Antiviral activity against telbivudine-resistant hepatitis B virus harboring reverse transcriptase M204I mutant infected in human Huh7 cells assessed as reduction in intracellular DNA levels measured on day 7 by real-time PCR analysis; assay type: functional, organism-based; details: Huh-7, 168 h
Hepatitis B virus [6] = test: Antiviral activity against telbivudine-resistant hepatitis B virus harboring reverse transcriptase L180M/M204V double mutant infected in human Huh7 cells assessed as reduction in intracellular DNA levels measured on day 7 by real-time PCR analysis; assay type: functional, organism-based; details: Huh-7, 168 h
Hepatitis B virus [7] = test: Antiviral activity against lamivudine-resistant wild type hepatitis B virus infected in human Huh7 cells assessed as reduction in secreted DNA levels measured on day 7 by real-time PCR analysis; assay type: functional, organism-based; details: Huh-7, 168 h
Hepatitis B virus [8] = test: Antiviral activity against lamivudine-resistant hepatitis B virus harboring reverse transcriptase M204I/V173L double mutant infected in human Huh7 cells assessed as reduction in intracellular DNA levels measured on day 7 by real-time PCR analysis; assay type: functional, organism-based; details: Huh-7, 168 h
Hepatitis B virus [9] = test: Antiviral activity against lamivudine-resistant hepatitis B virus harboring reverse transcriptase M204I/V173L double mutant infected in human Huh7 cells assessed as reduction in secreted DNA levels measured on day 7 by real-time PCR analysis; assay type: functional, organism-based; details: Huh-7, 168 h
Hepatitis B virus [10] = test: Antiviral activity against hepatitis B virus infected in human HepG2.215 cells assessed as reduction in viral DNA replication measured on day 7 by real time PCR analysis; assay type: functional, organism-based; details: HepG2.2.15, 168 h
Hepatitis B virus [11] = test: Antiviral activity against lamivudine-resistant hepatitis B virus harboring reverse transcriptase M204I mutant infected in human Huh7 cells assessed as reduction in secreted DNA levels measured on day 7 by real-time PCR analysis; assay type: functional, organism-based; details: Huh-7, 168 h
Hepatitis B virus [12] = test: Antiviral activity against lamivudine-resistant wild type hepatitis B virus infected in human Huh7 cells assessed as reduction in intracellular DNA levels measured on day 7 by real-time PCR analysis; assay type: functional, organism-based; details: Huh-7, 168 h
Hepatitis B virus [13] = test: Antiviral activity against lamivudine-resistant hepatitis B virus harboring reverse transcriptase M204I mutant infected in human Huh7 cells assessed as reduction in intracellular DNA levels measured on day 7 by real-time PCR analysis; assay type: functional, organism-based; details: Huh-7, 168 h
[14] = biological target: Core antigen (Hepatitis B virus) (UniProt Q03732); test: Inhibition of hepatitis B virus capsid assembly infected in human HepG2.215 cells assessed as reduction in viral DNA replication measured on day 7 by real time PCR analysis; assay type: cell-based
Chain of Core antigen (Hepatitis B virus) (Q03732 as listed by the source): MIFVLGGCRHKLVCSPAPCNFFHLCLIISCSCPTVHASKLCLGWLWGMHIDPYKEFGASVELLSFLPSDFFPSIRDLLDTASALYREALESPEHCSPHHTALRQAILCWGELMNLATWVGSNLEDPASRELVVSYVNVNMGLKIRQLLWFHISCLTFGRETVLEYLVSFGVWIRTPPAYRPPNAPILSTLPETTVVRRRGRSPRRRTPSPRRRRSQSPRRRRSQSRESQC

For `Nc1ncnc2c1ncn2CCOCP(=O)(O)O` [ADEFOVIR], the CC50 at 120 h [1] was 200 µM.
For `Cc1cn([C@@H]2C[C@@H](O)[C@H](CO)O2)c(=O)[nH]c1=O` [TELBIVUDINE], the EC50 (Hepatitis B virus [2]) was over 20 µM, the CC50 at 120 h [1] was over 200 µM and the EC50 (Hepatitis B virus [3]) was 569 nM. For the same compound, the EC50 (Hepatitis B virus [4]) was over 20 µM, the EC50 (Hepatitis B virus [5]) was over 20 µM and the EC50 (Hepatitis B virus [6]) was over 20 µM.
In the case of `Nc1ccn([C@@H]2CS[C@H](CO)O2)c(=O)n1` [LAMIVUDINE], the EC50 (Hepatitis B virus [7]) is reported as 55 nM, the CC50 at 120 h [1] is reported as 1020 µM and the EC50 (Hepatitis B virus [8]) is reported as over 20 µM. The EC50 (Hepatitis B virus [9]) was over 20 µM, the EC50 (Hepatitis B virus [10]) was 100 nM and the EC90 (Hepatitis B virus [10]) was 2000 nM. It also gave an EC50 (Hepatitis B virus [11]) of over 20 µM, an EC50 (Hepatitis B virus [12]) of 237 nM and an EC50 (Hepatitis B virus [13]) of over 20 µM.
`COC(=O)C1=C(C)NC(c2ncc(F)cc2F)=N[C@H]1c1ccc(F)cc1Cl` gave an EC90 [14] of 102 nM.
